Experimental data taken from US20140119985A1, “Photodynamic Control of Microbial Growth on Surfaces” (ORTNER CLEANROOM ENGINEERING GMBH, priority 2010, published 2014).
Like-named read-outs stand apart in the source and are kept apart here.

Experiments:
[1] = test system: Staphylococcus aureus; test: Contact assay on dye-treated textile pieces; format: cell-based; conditions: for cell growth: irradiation 1 min, distance 50 cm, about 10^4 cfu; for cfu calculated per ml cell culture: plates incubated 24 h; for number of colonies upon irradiation: distance 30 cm
[2] = test system: Klebsiella pneumoniae; conditions: LED 623 nm
Experimental: (§1) Typically, 3 μl of a growing cell culture having a titer of 7×10^7 cfu/ml were used in contact assays, whereas 50 μl were employed in plating assays. In some assays, the cell cultures were employed in a dilution of 10^−1, 10^−2, 10^−3, 10^−4, and 10^−5, respectively.
For contact assays, pieces of the textile fabric having a defined size of 1 cm×1 cm were employed.
(§2) In contact assays, the distance between the radiation source and the piece of textile fabric was in a range between 10 cm and 60 cm.
In brief, the contact assays were performed as follows: Pieces of a textile fabric (ION-NOSTAT VI.2) having a defined size (1×1 cm) were immersed for 3 h in an aqueous solution of reactive dye, such as methylene blue (100 μg/ml each). After complete drying of the textile pieces, 3 μl of a growing cell culture were added to the surface of the textile pieces. The pieces were irradiated with appropriate radiation (light) for a given period of time. Then, the textile pieces were contacted with agar plates; and the plates were incubated at 37° C. for 24 h.
The contact assay was performed as described in Example 1 using an aqueous solution of diemethyl methylene blue (DMMB) and new methylene blue (NMB), respectively (100 μg/ml each) as well as a combination thereof. Staphylococcus aureus and Klebsiella pneumoniae were employed as test organisms. Irradiation was accomplished by means of a LED (High Power Alustar 3 W 10° LED×ON Rot, from Conrad, Hirschau, Germany) at a wavelength of 623 nm. The distance between the LED and the textile pieces was 50 cm.

[3] = test system: Stenotrophomonas maltophilia; test: Contact assay on dye-treated textile pieces; format: cell-based; conditions: for cfu calculated per ml cell culture: plates incubated 48 h
Experimental: as §1
(§3) The textile fabric employed was a clean room textile, in particular ION-NOSTAT VI.2 (Dastex Reinraumzubehör, Muggensturm, Germany). For contact assays, pieces of the textile fabric having a defined size of 1 cm×1 cm were employed.
as §2
(§4) After complete drying of the textile pieces, 3 μl of a growing cell culture were added to the surface of the textile pieces. The pieces were irradiated with appropriate radiation (light) for a given period of time. Then, the textile pieces were contacted with agar plates; and the plates were incubated at 37° C. for 24 h.

[4] = test system: Candida albicans; test: Contact assay on dye-treated textile pieces; format: cell-based; conditions: irradiation 1 min, 2 min, 3 min, laser 15 mW, 532 nm
Experimental: as §1, §3, §2, §4

[5] = test system: Staphylococcus aureus; conditions: for colony forming units obtained: incubation with dye (3-5 min) without irradiation; for colonies detected: irradiation 3 min
[6] = test system: Stenotrophomonas maltophilia; conditions: dilution 10^−5
Experimental: as §1
(§5) Methylene blue (MB), dimethyl methylene blue (DMMB), new metylene blue (NMB), and toluidine blue (TB) were provided as solutions having a dye concentration of 100 μg/ml. 50 μl of either solution were used for plating assays.
(§6) In brief, the plating assays were performed as follows: In a well of a (96 well) microtiter plate 50 μl of a growing cell culture were mixed with aqueous solution of reactive dye, such as methylene blue (100 μg/ml each). The samples were irradiated with appropriate radiation (light) for a given period of time. The samples (100 μl) were plated on agar plates. The plates were incubated at 37° C. for 24 h.

[7] = test system: Candida albicans; conditions: dilution 10^−4, incubation period two days longer as compared to control
Experimental: as §1, §5, §6

[8] = 1 × pre-irradiation (3 min) of textile before contact with cells
[9] = 2 × pre-irradiation (3 min each, 90 min between) of textile before contact with cells
[10] = Control (dye, no irrad.), dilution 10^−5
[11] = Irradiation for 3 min, dilution 10^−5
[12] = irradiation 3 min, laser 15 mW, 532 nm
[13] = textile immersed in dye 100 μg/ml, irradiation 3 min, laser 15 mW, 532 nm
[14] = textile incubated with dye 100 μg/ml, no irradiation
[15] = incubation with dye, mercury lamp 515-560 nm
[16] = black light lamp, irradiation for 30 s
[17] = black light lamp, irradiation for 3 min
[18] = mercury lamp, irradiation for 30 s
[19] = mercury lamp, irradiation for 3 min

CCNc1cc2[s+]c3cc(NCC)c(C)cc3nc2cc1C.[Cl-] [new methylene blue, 3,7-bis(ethylamino)-2,8-dimethylphenaza-thionium chloride]
cell growth ([1]; LED 623 nm): only a small reduction of cell growth
reduction of cell growth ([1]; LED 623 nm, irradiation for 2 min and 5 min, data not shown): more than 50%

Cc1cc(N(C)C)cc2[s+]c3cc(N(C)C)cc(C)c3nc12.[Cl-] [dimethyl methylene blue, 3,7-bis(dimethylamino)-1,9-dimethyldiphenothiazin-5-ium chloride]
cell growth ([1]; LED 623 nm): no cell growth could be detected
inhibition of cell growth ([2]; about 10^4 cfu): significant inhibition of cell growth
cell numbers ([2]; after 5 min of irradiation): noticeable reduction of cell numbers
reduction of cell numbers ([2]; irradiation period of 10 min): further increase
dye released from stained textile pieces (single immersion with acetone, acetic acid, and ethanol, data not shown): Trace amounts
dye released from stained textile pieces (two cycles of immersion in 99% acetone, 99% acetic acid, 1 M NaOH, 99% ethanol, stained with 100 mg/l): No dye

CN(C)c1ccc2nc3ccc(N(C)C)cc3[s+]c2c1.[Cl-] [methylene blue, 3,7-bis(dimethylamino)-phenothiazin-5-ium chloride]
cfu calculated per ml cell culture [1, 8]: 0 cfu/ml
cfu calculated per ml cell culture [1, 9]: 0 cfu/ml
cfu calculated per ml cell culture [1, 10]: 1.7 × 10^8 cfu/ml
cfu calculated per ml cell culture [1, 11]: 0 cfu/ml
number of colonies upon irradiation ([1]; irradiation 2 min with LED1, 620-640 nm): significant reduction of the number of colonies
number of colonies upon irradiation ([1]; irradiation 2 min with LED2, 620-640 nm): significant reduction of the number of colonies
growth inhibition [1, 12]: complete
colonies (cfu) after contact sampling [1, 13]: no colonies
growth after contact sampling without irradiation [1, 14]: lawn of bacteria
cfu calculated per ml cell culture [3, 8]: 1.0 × 10^5 cfu/ml
cfu calculated per ml cell culture [3, 9]: 1.0 × 10^5 cfu/ml
cfu calculated per ml cell culture [3, 10]: 1.1 × 10^8 cfu/ml
cfu calculated per ml cell culture [3, 11]: 1.0 × 10^5 cfu/ml
growth inhibition [3, 12]: almost complete
colonies (cfu) after contact sampling [3, 13]: two colonies
growth after contact sampling without irradiation [3, 14]: lawn of bacteria
microbial growth upon irradiation [4]: significant reduction of microbial growth
cfu per ml ([5]; black light lamp, irradiation for 30 s, dilution 10^−5): 1.2 × 10^8 cfu/ml
cfu per ml ([5]; black light lamp, irradiation for 3 min, dilution 10^−5): 1.5 × 10^7 cfu/ml
colony forming units obtained [5]: 177 cfu
colonies detected [5, 15]: one colony
cfu per ml ([5]; irradiation 2 min with LED1, 620-640 nm, dilution 10^−5): 1.2×10^7 cfu/ml
cfu per ml ([5]; irradiation 2 min with LED2, 620-640 nm, dilution 10^−5): 2.0×10^6 cfu/ml
colonies detected ([5]; black light lamp 350-370 nm, dilution 10^−5): 15
colonies detected ([5]; mercury lamp 515-560 nm, dilution 10^−5): No colonies
cfu per ml ([5]; mercury lamp, irradiation for 30 s, dilution 10^−5): 2.1 × 10^7 cfu/ml
cfu per ml ([5]; mercury lamp, irradiation for 3 min, dilution 10^−5): 1.0 × 10^5 cfu/ml
cfu per ml [6, 16]: 2.9 × 10^7 cfu/ml
cfu per ml [6, 17]: 0 cfu/ml
cfu per ml [6, 18]: 1.4 × 10^7 cfu/ml
cfu per ml [6, 19]: 0 cfu/ml
cfu per ml [7, 16]: 2.7 × 10^7 cfu/ml*
cfu per ml [7, 17]: 2.3 × 10^7 cfu/ml*
cfu per ml [7, 18]: 2.3 × 10^7 cfu/ml*
cfu per ml [7, 19]: 2.2 × 10^7 cfu/ml*

Cc1cc2nc3ccc(=[N+](C)C)cc-3sc2cc1N.[Cl-] [toluidine blue]
cfu calculated per ml cell culture [1, 8]: 9.0 × 10^4 cfu/ml
cfu calculated per ml cell culture [1, 9]: 5.0 × 10^4 cfu/ml
cfu calculated per ml cell culture [1, 10]: 8.9 × 10^6 cfu/ml
cfu calculated per ml cell culture [1, 11]: 0 cfu/ml
colony forming units obtained [5]: 89 cfu
colonies detected [5, 15]: no colony
